ChEMBL document CHEMBL1201862, “PubChem BioAssay data set” (2004)
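Following 48 hours of exposure in 96-well plates, responses at five concentrations were used to interpolate endpoints linearly. Abbreviation: GI50, concentration required for 50% inhibition of growth.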 Active and inactive are the calls of the source. Cut-off read from the data, not from the text of the source: active = GI50 up to about 1.1 µM and inactive = higher.

Key:
Test in all cases: growth of human tumour cells (NCI), 48 h
UO-31 = tested on: UO-31
LOX IMVI = tested on: LOX IMVI
HCT-116 = tested on: HCT-116
A498 = tested on: A498
SK-MEL-2 = tested on: SK-MEL-2
NCI-H23 = tested on: NCI-H23
RXF 393 = tested on: RXF 393
MCF7 = tested on: MCF7
HCC 2998 = tested on: HCC 2998
MDA-N = tested on: MDA-N
IGROV-1 = tested on: IGROV-1
OVCAR-4 = tested on: OVCAR-4
K562 = tested on: K562
SN12C = tested on: SN12C
UACC-257 = tested on: UACC-257
PC-3 = tested on: PC-3
DU-145 = tested on: DU-145
T47D = tested on: T47D
EKVX = tested on: EKVX
SW-620 = tested on: SW-620
CCRF-CEM = tested on: CCRF-CEM
OVCAR-8 = tested on: OVCAR-8
NCI/ADR-RES = tested on: NCI/ADR-RES
ACHN = tested on: ACHN
CAKI-1 = tested on: CAKI-1
HCT-15 = tested on: HCT-15
HOP-92 = tested on: HOP-92
SNB-19 = tested on: SNB-19
A549 = tested on: A549
NCI-H522 = tested on: NCI-H522
SK-MEL-5 = tested on: SK-MEL-5
UACC-62 = tested on: UACC-62
SF-539 = tested on: SF-539
SK-MEL-28 = tested on: SK-MEL-28
M14 = tested on: M14
MDA-MB-435 = tested on: MDA-MB-435
Malme-3M = tested on: Malme-3M
TK-10 = tested on: TK-10
HOP-62 = tested on: HOP-62
OVCAR-3 = tested on: OVCAR-3
MDA-MB-231 = tested on: MDA-MB-231
SK-OV-3 = tested on: SK-OV-3
COLO 205 = tested on: COLO 205
SNB-75 = tested on: SNB-75
786-0 = tested on: 786-0
KM12 = tested on: KM12
SF-295 = tested on: SF-295
RPMI-8226 = tested on: RPMI-8226
NCI-H226 = tested on: NCI-H226
MOLT-4 = tested on: MOLT-4
U-251 = tested on: U-251
OVCAR-5 = tested on: OVCAR-5
NCI-H460 = tested on: NCI-H460
SR = tested on: SR
HL-60 = tested on: HL-60
HT-29 = tested on: HT-29
Hs-578T = tested on: Hs-578T
SF-268 = tested on: SF-268

CCCNC(=O)N(C)C(=O)N1N=C(c2ccccc2)C1c1ccccc1 (centres undefined)
GI50 (UO-31): 50.4 µM (inactive)
GI50 (LOX IMVI): 75.5 µM (inactive)
GI50 (HCT-116): 51.8 µM (inactive)
GI50 (A498): > 100 µM (inactive)
GI50 (SK-MEL-2): > 100 µM (inactive)
GI50 (NCI-H23): > 100 µM (inactive)
GI50 (RXF 393): > 100 µM (inactive)
GI50 (MCF7): > 100 µM (inactive)
GI50 (HCC 2998): 60 µM (inactive)
GI50 (MDA-N): 95.1 µM (inactive)
GI50 (IGROV-1): 78.7 µM (inactive)
GI50 (OVCAR-4): 46.1 µM (inactive)
GI50 (K562): 49 µM (inactive)
GI50 (SN12C): 37 µM (inactive)
GI50 (UACC-257): 82.6 µM (inactive)
GI50 (PC-3): 56.9 µM (inactive)
GI50 (DU-145): > 100 µM (inactive)
GI50 (T47D): > 100 µM (inactive)
GI50 (EKVX): > 100 µM (inactive)
GI50 (SW-620): > 100 µM (inactive)
GI50 (CCRF-CEM): 17.7 µM (inactive)
GI50 (OVCAR-8): 55.7 µM (inactive)
GI50 (NCI/ADR-RES): > 100 µM (inactive)
GI50 (ACHN): 90.6 µM (inactive)
GI50 (CAKI-1): 75.3 µM (inactive)
GI50 (HCT-15): 45.3 µM
GI50 (HOP-92): 62.4 µM (inactive)
GI50 (SNB-19): > 100 µM (inactive)
GI50 (A549): 78.9 µM (inactive)
GI50 (NCI-H522): 62.4 µM (inactive)
GI50 (SK-MEL-5): 87.3 µM (inactive)
GI50 (UACC-62): 59.3 µM (inactive)
GI50 (SF-539): > 100 µM (inactive)
GI50 (SK-MEL-28): > 100 µM (inactive)
GI50 (M14): > 100 µM (inactive)
GI50 (MDA-MB-435): 95.7 µM (inactive)
GI50 (Malme-3M): 39.6 µM (inactive)
GI50 (TK-10): > 100 µM (inactive)
GI50 (HOP-62): > 100 µM (inactive)
GI50 (OVCAR-3): 61.7 µM (inactive)
GI50 (MDA-MB-231): > 100 µM (inactive)
GI50 (SK-OV-3): > 100 µM (inactive)
GI50 (COLO 205): 54.2 µM (inactive)
GI50 (SNB-75): 54.3 µM (inactive)
GI50 (786-0): > 100 µM (inactive)
GI50 (KM12): 40.5 µM (inactive)
GI50 (SF-295): 64.7 µM (inactive)
GI50 (RPMI-8226): 38.2 µM (inactive)
GI50 (NCI-H226): > 100 µM (inactive)
GI50 (MOLT-4): 23.7 µM (inactive)
GI50 (U-251): 89.9 µM (inactive)

C/C(=C\c1ccc(Cl)c(Cl)c1)[N+](=O)[O-]
GI50 (UO-31): 1.32 µM (inactive)
GI50 (LOX IMVI): 0.314 µM (active)
GI50 (OVCAR-5): 1.96 µM (inactive)
GI50 (NCI-H460): 20.7 µM (inactive)
GI50 (HCT-116): 2.77 µM (inactive)
GI50 (A498): 4.4 µM (inactive)
GI50 (SK-MEL-2): 1.99 µM (inactive)
GI50 (NCI-H23): 2.26 µM (inactive)
GI50 (SR): 0.685 µM (active)
GI50 (MCF7): 0.433 µM (active)
GI50 (HCC 2998): 4.36 µM (inactive)
GI50 (IGROV-1): 2.16 µM (inactive)
GI50 (OVCAR-4): 2.51 µM (inactive)
GI50 (HL-60): 1.52 µM (inactive)
GI50 (K562): 1.55 µM (inactive)
GI50 (SN12C): 2.05 µM (inactive)
GI50 (UACC-257): 1.3 µM (inactive)
GI50 (HT-29): 3.78 µM (inactive)
GI50 (DU-145): 1.63 µM (inactive)
GI50 (EKVX): 2.08 µM (inactive)
GI50 (SW-620): 0.986 µM (active)
GI50 (OVCAR-8): 1.13 µM (inactive)
GI50 (NCI/ADR-RES): 3.41 µM (inactive)
GI50 (ACHN): 1.98 µM (inactive)
GI50 (HCT-15): 1.35 µM
GI50 (SNB-19): 2.39 µM (inactive)
GI50 (A549): 1.89 µM (inactive)
GI50 (NCI-H522): 1.63 µM (inactive)
GI50 (SK-MEL-5): 2.04 µM (inactive)
GI50 (UACC-62): 2.38 µM (inactive)
GI50 (SF-539): 2.03 µM (inactive)
GI50 (SK-MEL-28): 2.31 µM (inactive)
GI50 (M14): 0.738 µM (active)
GI50 (MDA-MB-435): 2.23 µM (inactive)
GI50 (Malme-3M): 2.08 µM (inactive)
GI50 (TK-10): 1.86 µM (inactive)
GI50 (HOP-62): 2.5 µM (inactive)
GI50 (OVCAR-3): 1.65 µM (inactive)
GI50 (MDA-MB-231): 2.1 µM (inactive)
GI50 (Hs-578T): 3.24 µM (inactive)
GI50 (SNB-75): 4.2 µM (inactive)
GI50 (786-0): 0.579 µM (active)
GI50 (KM12): 2.02 µM (inactive)
GI50 (SF-295): 3.68 µM (inactive)
GI50 (NCI-H226): 2.46 µM (inactive)
GI50 (MOLT-4): 0.398 µM (active)
GI50 (SF-268): 1.4 µM (inactive)
GI50 (U-251): 1.71 µM (inactive)
